We go through 6 molecules from patent publication US20180221306A1, “PHARMACEUTICAL COMPOSITIONS OF 5-HYDROXY-2-METHYLNAPHTHALENE-1,4-DIONE” (PellFiCure Pharmaceuticals, Inc., priority 2016, published 2018).

The assay concerns PTEN-P2/H2B-GFP mouse prostate cancer cells. In words: IVM pseudo-orthotopic prostate chamber model, tumor size. Conditions: for Combination efficacy: the drug in combination with Compound I administered orally. The protocol:
Male Nude mice (25-35 g body weight) are anesthetized (7.3 mg ketamine hydrochloride and 2.3 mg xylazine/100 g body weight, i.p.) and placed on a heating pad. Two symmetrical titanium frames are implanted into a dorsal skinfold, so as to sandwich the extended double layer of skin. A 15 mm full thickness circular layer is excised. The underlying muscle (M. cutaneous max.) and subcutaneous tissues are covered with a glass coverslip incorporated in one of the frames. After a recovery period of 2-3 days, prostate tissue and cancer cell spheroids are carefully placed in the chamber. Small circular Band Aids are applied on the backside of the chamber after surgery to prevent scratching. Before surgery, Buprenorphine (0.1 mg/kg) is given IP. After surgery Meloxicam is given in the drinking water for 4 days Meloxicam (5.0 mg/ml), is added at 35 μl per 100 ml of water to be medicated.
Mice are anesthetized with 7.3 mg ketamine hydrochloride and 2.3 mg xylazine/100 g body weight, i.p. A lateral incision across the scrotum is made and the testes are individually ligated and excised. The wound is cauterized. The incision is then sutured and sealed with Nexaband® acrylic.
Preparation of tumor spheroids: Liquid overlay plates were generated using 1% molecular biology grade agarose melted in cell culture medium and plated in round bottom 96 well plates at 50 ul/well. Tumor cells grown as pre-confluent monolayers were trypsinized and diluted to a final volume of 1,000,000 cells/ml. Viability was determined by Trypan blue. Cells were placed onto the cooled agarose (70 μl/well) and allowed to compact into spheroids for 24 hours. The spheroids were picked with a pipette and transferred into serum-free media for implantation in the chambers.
IntraVital Microscopy (IVM) can be used to visualize tumors in animals and analyze various aspects of cancer physiology such as tumor vascularization, cell migration and metastasis. An advantage of IVM includes the real-time analysis of dynamic processes with single-cell resolution. IntraVital microscopy offers the possibility to follow tumor growth in a non-invasive, non-destructive manner. The application of IVM can be limited to animal models that bear visually accessible tumors. Therefore, the dorsal skinfold chamber model described above can be compatible with IVM. Using IVM can permit a number of parameters to be measured in living animals and as a function of time, including tumor growth, angiogenesis, infiltration by immune cells, tumor cell migration, mitosis (cell-division) and apoptosis (programmed cell death), all in the context of the host and in real time.
Unless otherwise indicated, Compound I was administered by oral gavage in a sesame oil (Carrier A) formulation. Compound I was dissolved in DMSO then in oil at a concentration of 0.25 mg/ml (weight/volume) with a final DMSO concentration of 0.5% (vol/vol), and administered to mice at 1 mg/kg. In some experiments, Compound I dissolved in a mixture of poly-ethylene glycol/DMSO 30% (w/v) was administered via intra-peritoneal injection.
The efficacy of the formulation of Compound I in Carrier A for oral administration was compared to the previous formulation of Compound I in poly-ethylene glycol (PEG) for intra-peritoneal injection (i.p.). These experiments were performed using Intra Vital Microscopy (IVM) in a pseudo-orthotopic prostate chamber model in which minced prostate tissue is grafted in chambers surgically placed in the dorsal skinfold of mice, and allowed to vascularize. Small tumor cells spheroids were then placed on the prostate tissue, creating a biologically relevant prostatic environment. The tumor cells that express fluorescent H2B-GFP and can be detected in situ and in real-time through the microscopy window of the dorsal chamber.
Epithelial cell lines derived from the prostate tumor of a PTEN-null mouse were used. Mouse prostate cancer cells PTEN-P2 are heterozygous for PTEN deletion and do express protein PTEN.

With `C[C@]12CC[C@H](O)CC1=CC[C@@H]1[C@@H]2CC[C@]2(C)C(c3cccnc3)=CC[C@@H]12` [Abiratcrone, (3β)-17-(pyridin-3-yl)androsta-5,16-dien-3-ol, reference compound], the Combination efficacy entry was “Yes”.

Take `CC(O)(CS(=O)(=O)c1ccc(F)cc1)C(=O)Nc1ccc(C#N)c(C(F)(F)F)c1` (stereo not drawn) [bicalutamide, N-[4-cyano-3-(trifluoromethyl)phenyl]-3-[(4-fluorophenyl)sulfonyl]-2-hydroxy-2-methylpropanamide, reference compound]: the Combination efficacy entry was “No”. Further, where the note is “bicalutamide alone, inhibited further tumor growth”, the “Effect on tumor size, drug alone” value is on record as “did not result in a reduction of initial tumor size”.

`C[C@]12C=CC(=O)N[C@@H]1CC[C@@H]1[C@@H]2CC[C@]2(C)[C@@H](C(=O)Nc3cc(C(F)(F)F)ccc3C(F)(F)F)CC[C@@H]12` [dutasteride, (5α,17β)-N-{2,5-bis(trifluoromethyl)phenyl}-3-oxo-4-azaandrost-1-ene-17-carboxamide, reference compound]: the Combination efficacy entry is reported as “Yes”. In addition, the “Tumor size relative to initial size” value (dutasteride alone) was determined as 120%.

For `CNC(=O)c1ccc(N2C(=S)N(c3ccc(C#N)c(C(F)(F)F)c3)C(=O)C2(C)C)cc1F` [enzalutamide, (4-(3-(4-cyano-3-(trifluoromethyl)phenyl)-5,5-dimethyl-4-oxo-2-thioxoimidazolidin-1-yl)-2-fluoro-N-methylbenzamide), reference compound], the Combination efficacy entry was “No”. Moreover, the “Effect on tumor size, drug alone” value (enzalutamide alone) is given as “did not result in a reduction in tumor size”.

`CCNC(=O)[C@@H]1CCCN1C(=O)[C@H](CCCNC(=N)N)NC(=O)[C@H](CC(C)C)NC(=O)[C@@H](CC(C)C)NC(=O)[C@H](Cc1ccc(O)cc1)NC(=O)[C@H](CO)NC(=O)[C@H](Cc1c[nH]c2ccccc12)NC(=O)[C@H](Cc1c[nH]cn1)NC(=O)[C@@H]1CCC(=O)N1` [leuprolide, 5-oxo-L-prolyl-L-histidyl-L-tryptophyl-L-seryl-L-tyrosyl-D-leucyl-L-leucyl-L-arginyl-N-ethyl-Lprolinamide acetate, reference compound]: the Combination efficacy entry is “Yes”. Also, for the setting “leuprolide alone”, the “Effect on tumor growth, drug alone” value is reported as “arrested tumor growth after 15 days of treatment but did not decrease tumor sizes”. Also, the “Tumor size reached, relative to initial size” value (leuprolide alone (Lupron depot, 0.187 mg/mouse i.m. once)) stood at 180%.

For `CNC(=O)c1ccc2cc(C3(O)CCn4cncc43)ccc2c1` (stereo not drawn) [orteronel, 6-(7-Hydroxy-6,7-dihydro-5H-pyrrolo[1,2-c]imidazol-7-yl)-N-methyl-naphthalene-2-carboxamide, reference compound], the Combination efficacy entry is given as “Yes”. The “Effect on tumor size, drug alone” value (orteronel alone) was “did not result in a reduction in tumor size”.
